From US6277383A, “Ryegrass pollen allergen” (University of Melbourne, priority 1995, dated 2001) come the findings set out here.

Series [1] can be described thus: Two dimensional gel electrophoresis of ryegrass pollen proteins (pI). The class given is physicochemical, Lolium perenne. To be noted: allergen spot on two dimensional gel. As for the experimental part: (§1) Two dimensional (2D)-PAGE was performed in a mini-Protean II 2-D cell (Biorad, Richmond, Calif.) according to the manufacturer instructions. The proteins were diluted 1:1 in 4% CHAPS. […] The first dimension gel was run for 3.5 hours. The econd dimension gel was run for 45 minutes. Proteins on 2D-PAGE gels were silver stained to reveal the protein profile.

In series [2] the test system is IgE from sera of allergic indivs. The series is described as follows: Screening of lambda-gt 11 cDNA clones for IgE binding. More on the design: species or system human; key: ++: strongest binding; -: no binding. Particulars: protein expressed by lambda-gt 11 clone, plaque lift. As to the method: (§2) Poly (A+) mRNA isolated from mature rye grass pollen by the phenol method ([…] and Michaels, (1984) Plant Mol. Biol. Rep., 2:24-28) was used to construct a cDNA library in the vector lambda-gt 11. The library was then screened with antibody probes to detect sequences expressing Group I proteins. E. coli […] transfected with 3×10^4 recombinant phages were plated and incubated at 42° C. for 3 h. The plates were overlaid with a dry 132 mm nitrocellulose (NC) filter previously soaked in 10 mm IPTG and transferred to 37° C. After incubation for 3 h the filters were carefully peeled off and incubated in 20 ml per filter of MTBS (10% w/v non-fat milk powder, 50 mm Tris-HCI, pH 7.6, 150 mM Nacl) for 30 min. at room temperature. A second set of NC filters was placed on phage plates and after incubating for 3 h were treated as above. Both sets of NC filters were tested for binding of MAb 40.1 to plaques by the method described in Huynh et al. (1985) In: DNA Cloning, a practical approach, Glover, D. M. (ed.) Vol. 1, pp. 49-78, IRL Press, Oxford, England. The antibody positive plaques were picked, purified, then replated and tested for binding to probes. The positive clones were plaque-purified and tested for IgE binding using sera from grass pollen-allergic subjects. Eighteen clones were selected as encoding proteins recognized by both Lol p I-specific MAbs and IgE antibodies (Table 1). The largest of the cDNA clones, 1.2kb in size, that expressed rye-grass allergenic protein was initially selected for further characterization and sequencing, and designated clone lambda-12R (FIG. 1a).

In series [3] the test system is IgE affinity purified from recombinant allergens and IgE from whole serum of allergic individuals. The experiment in a line: Two-dimensional Western blot: IgE binding to allergens. Also noted: species or system human. Particulars: IgE preparations that bind: AP12R, AP13R, AP19R = affinity purified from recombinant Lol p Ib.1 fragment IH, Lol p Ia clone 13R, Lol p Ib.2; TIgE = whole serum.
Source text: Serum used in the experiment to identify allergen regions of Lol p Ia and Lol p Ib was collected by Dr. R. Phomley at the Epworth Hospital (Richmond, Australia) from patients with a history of allergy to ryegrass pollen and a positive skin test to ryegrass pollen extract. IgE was affinity-purified from recombinant allergens as previously described (Singh, et al., (1991) Proc. Nat'l Acad. Sci. USA, […]; Example 2) except recombinant proteins were derived from lambda-gt11 culture rather than pGEX cultures.
as §1
Conditions for electrophoresis and Western blotting and for the processing of Western blots with MAbs and IgE were as described by Singh, et al., (1985) Int. Arch. Allergy Appl. Immun., 78:300.

In a further series the test system is MAb 40.1. The series is described as follows: Antibody screening of lambda-gt 11 cDNA clones: binding of MAb 40.1. To be noted: protein expressed by lambda-gt 11 clone in E. coli Y1090, plaque lift. More on the design: key: ++: strongest binding; -: no binding. As to the method:
as §2

Series [4] has as its system human IgE of individual sera. The series is described as follows: Peptide dot blot immunoassay: human IgE. The class given is binding. To be noted: for IgE Binding (symbol): sera diluted 1:4. As for the experimental part: (§3) The peptides were dissolved in water to give a 1.6 mM stock solution. Insoluble peptides were dissolved by sonication (Branson Sonifier 450, USA) for 1 minute.
(§4) The peptides were immobilized onto nitrocellulose (NC) filter by using a modified method published elsewhere (Sithigonglu (1991) J. Immunol. Methods, 141:23-32). Two μl of the peptide stock solutions were spotted on the NC filter (Schleicher & Schuell, W. Germany) about 1 cm apart. After the strips were dried and baked at 80° C. for one hour, they were fixed by exposure, in a tightly sealed plastic box, to vapor from 0.2% glutaraldehyde in PBS at room temperature (18° C.) for one hour. After washing thoroughly with distilled water, the NC filters were blocked with Blotto (10% non-fat dry milk in PBS) for two hours and washed in 1×Tween-PBS (0.1% Tween-20 in PBS) and 2×PBS, five minutes each.
(§5) The peptides were then screened for human IgE and mouse/rabbit IgG epitopes with individual sera (diluted 1:4 in PBS with 0.5% BSA), MAbs FMC A7 (Smart et al. (1983) Int. Arch. Allergy Clin. Immunol. 72: 243) and polyclonal rabbit anti-Lol p Ib antibody. The rabbit anti-sera was a gift from Dr. Jenny Roland, Alfred Hospital, Melbourne, Australia.
(§6) The intensity of each dot blot was measured by densitometer (Pharmacia LKB UltraScan XL, Sweden). Densitometric values greater than two were considered as positive binding in comparison to the background. For every peptide, the sera and antibody values have been added (score/peptide) and divided by the number of positive sera to express the final value as an average (score/sera). Sera C1 and C2 were not grass allergic and were used as negative controls. C refers to crude ryegrass pollen extract (1 μg/dot) as positive control.

Series [5] concerns Mab FMC-A7 and rabbit polyclonal anti-Lol p Ib antiserum. The series is described as follows: Peptide dot blot immunoassay: mouse/rabbit IgG. The class given is binding. As for the experimental part: as §3, §4, §5, §6
The next series has as its system MAb 12.3. The series is described as follows: Antibody screening of lambda-gt 11 cDNA clones: binding of MAb 12.3. More on the design: key to Binding of MAb 12.3: ++: strongest binding; -: no binding. As for the experimental part: as §2
In series [6] the test system is specific IgE from pooled human allergic sera. The experiment in a line: Immunological screening of clone 19R with sera. The series is classed as binding. To be noted: plaque purified clone. An excerpt:
Duplicate filters of the cDNA expression library in Example 1 were screened with specific IgE from pooled human allergic sera. The bound IgE was detected using ^125 I-labelled anti-human IgE (Kallestad Laboratories,Chaska, Minn.). The plaques that were antibody-positive on both of the duplicate filters were picked off, purified, and then replated and tested for binding to MAbs.

The subject of series [7] is IgE antibodies of individual serum from 30 grass allergic patients. The experiment in a line: Dot blot screening of recombinant allergens with 30 individual allergic sera. The series is classed as binding, human. As to the method:
Two microliters of phage stocks of clones 12R, 13R and 19R and a non-recombinant lambda gt 11 were spotted onto a lawn of E. coli Y1090 induced with a nitrocellulose filter saturated with 10 mM IPTG. The protein blots were then probed with individual serum from 30 grass allergic patients. a=Lol p Ib.1, b=Lol p Ia, c=Lol p Ib.2 and d=non-recombinant lambda gt 11. [<]=individuals having higher level of IgE bound to Lol p Ib.2 than Lol p Ia and Lol p Ib.1. [1]=individuals having IgE specific to Lol p Ia. [2]=individuals having IgE specific to Lol p Ib.1 and Lol p Ib.2.
The relative allergenicity of Lol p Ia, Lol p Ib.1 and Lol p Ib.2 were tested using 30 individual allergic sera.

In series [1], AANAPPADKFKI [Peptide 7] gave a pI of 6. In addition, the “Binding of IgE from sera of allergic indivs.” value in [2] is “-”. In addition, the IgE binding result in series [3] is “AP12R,AP19R and TIgE”. Further, in the series with MAb 40.1, the “Binding of MAb 40.1” value was “++”. Moreover, in series [4], the “Human IgE-reactivity (in words)” value is “highest human IgE-reactivity” and the “IgE Binding (symbol)” value is recorded as “+ (Densitometric values greater than two were considered as positive binding)”. For the same molecule, in series [5], the “Mouse/rabbit IgG-reactivity (in words)” value is reported as “highest mouse/rabbit IgG-reactivity”.
With ADAGYTPAAAAT [Peptide 1], in [1], the pI came to 5.5. Moreover, in [2], the “Binding of IgE from sera of allergic indivs.” value was “-”. Besides, in [3], the IgE binding entry is reported as “AP13R TIgE”. For the same molecule, the “Binding of MAb 40.1” value in the series with MAb 40.1 is “-”. Also, in series [5], the “Mouse/rabbit IgG-reactivity (in words)” value is “highest mouse/rabbit IgG-reactivity”. Besides, the “Binding of MAb 12.3” value in the series with MAb 12.3 (protein expressed by lambda-gt 11 clone in E. coli Y1090, plaque lift) is listed as “-”.
With NECTGGAYETYK [Peptide 24], the “IgE Binding (symbol)” value in series [4] is recorded as “+ (Densitometric values greater than two were considered as positive binding)”. For the same molecule, the “Mouse/rabbit IgG-reactivity (in words)” value in [5] is “highest mouse/rabbit IgG-reactivity”.

B1: clone 19R: lambda gt 11 cDNA clone encoding Lol p Ib.2 (protein)
chain: MAVQKHTVALFLAVALVAGPAASYAADAGYAPATPATPAAPATAATPATPATPATPAAVPSGKATTEEQKLIEKINAGFKAAVAAAAVVPPADKYKTFVETFGTATNKAFVEGLASGYADQSKNQLTSKLDAALKLAYEAAQGATPEAKYDAYVATLTEALRVIAGTLEVHAVKPAAEEVKVGAIPAAEVQLIDKVDAAYRTAATAANAAPANDKFTVFENTFNNAIKVSLGAAYDSYKFIPTLVAAVKQAYAAKQATAPEVKYTVSETALKKAVTAMSEAEKEATPAAAATATPTPAAATATATPAAAYATATPAAATATATPAAATATPAAAGGYKV
With B1, the “Reaction with non-allergic sera” value in series [6] is recorded as “not positive”. Further, the “Binding of specific IgE in sera of ryegrass sensitive patients” value in series [6] (pooled allergic sera) is “bind specific IgE”.

B2: Lol p Ib.2: protein encoded by clone 19R (SEQ ID NO.: 4) (protein)
chain: MAVQKHTVALFLAVALVAGPAASYAADAGYAPATPATPAAPATAATPATPATPATPAAVPSGKATTEEQKLIEKINAGFKAAVAAAAVVPPADKYKTFVETFGTATNKAFVEGLASGYADQSKNQLTSKLDAALKLAYEAAQGATPEAKYDAYVATLTEALRVIAGTLEVHAVKPAAEEVKVGAIPAAEVQLIDKVDAAYRTAATAANAAPANDKFTVFENTFNNAIKVSLGAAYDSYKFIPTLVAAVKQAYAAKQATAPEVKYTVSETALKKAVTAMSEAEKEATPAAAATATPTPAAATATATPAAAYATATPAAATATATPAAATATPAAAGGYKV
Turning to B2, the “Patients with IgE antibodies reactive to the recombinant allergen” value in series [7] is 80%.

B3: Lol p Ib.1: protein encoded by the 12R clone (SEQ ID NO.: 2) (protein)
chain: MAVQKYTVALFLAVALVAGPAASYAADAGYTPAAAATPATPAATPAAAGGKATTDEQKLLEDVNAGFKAAVAAAANAPPADKFKIFEAAFSESSKGLLATSAAKAPGLIPKLDTAYDVAYKAAEGATPEAKYDAFVTALTEALRVIAGALEVHAVKPATEEVPAAKIPTGELQIVDKIDAAFKIAATAANAAPTNDKFTVFESAFNKALNECTGGAYETYKFIPSLEAAVKQAYAATVAAAPEVKYAVFEAALTKAITAMTQAQKAGKPAAAAATGAATVATGAATAAAGAATAAAGGYKA
With B3, in series [7], the “Patients with IgE antibodies reactive to the recombinant allergen” value worked out at 80%. The “Affinity of MAb 12.3 (footnote of Table 1, in words)” value in the series with MAb 12.3 is on record as “high affinity”.
